Patent US8937038B2, “Composition containing peptide ligand that bonds with CXCR2 for treating infective and inflammatory diseases” (priority 2010, dated 2015)

Experiments:
mouse neutrophils = assay: Disinfection activity of mouse neutrophils phagocytizing E. coli; type: cell-based; conditions: Ac-PGP 0.1 to 100 nM for 20 minutes, FIG. 11
Method: Mouse neutrophils were separated from peripheral blood using a Histopaque-1077 solution (Sigma) (Bae Y S et al. 2001 Blood. 97: 2854-2862). The neutrophils separated from normal mice were stimulated with various concentrations of Ac-PGP for 10 minutes in the presence of cytochalasin B (5 μM). To identify the role of mCXCR2, the neutrophils were pre-incubated in various concentrations of SB225002 or a vehicle (DMSO) for 30 minutes in a stationary environment, and Ac-PGP (20 μM) was added, and incubated for 10 minutes. H2O2 in a supernatant was measured using a H2O2 measurement kit (Molecular probe).
The disinfection activities of the neutrophils were measured according to a method disclosed by Yan et al. (Yan J J et al. 2004 Nat. Med. 10:161-167). The neutrophils were stationarily incubated at 37° C. for an hour on a 13 mm plastic cover slip in a 60 mm plastic culture dish. The non-attached cells were removed by PBS. The attached neutrophils were stationarily incubated for an hour with 10^6 opsonized E. coli cells. The non-phagocytized E. coli cells were washed, and the number of bacteria surviving in the neutrophils was determined before and after the E. coli cells were treated with various concentrations of Ac-PGP or vehicle for an hour. A percentage of the apoptosized bacteria was calculated as follows. […]

caspase-3 = assay: Caspase-3 activation in splenocytes of CLP mice (immunohistochemistry); type: in vivo, mouse; conditions: FIG. 23
Method: First, a tissue embedded in paraffin was deparaffinized using a typical histological protocol, and performed digoxigenin-dUTP nick end labeling (TUNEL) analysis. Sections were permeated into the Triton X-100 at 4° C. for 2 minutes, and the sections were flooded in terminal deoxynucleotidyl transferase (TdT) and a TUNEL reagent at 37° C. for 60 minutes. A percentage of apoptotic cells (TUNEL-positive cells) was determined by counting 500 splenocytes under an optical microscope. Also, the tissue embedded in paraffin was deparaffinized using a typical histological protocol, and immunohistochemical analysis was performed on the microtomed sections of caspase-3 (Wang J. et al. 2001 Proc. Natl. Acad. Sci. USA 98:4038-43).
The apoptosis of immune cells is associated with the mortality on sepsis. Here, the CLP was proven to remarkably increase apoptosis of splenocytes (FIG. 22). […] Apoptosis of lymphocytes was induced by activation of some major caspases including caspase-3. Therefore, not only the effect of Ac-PGP on activation of caspase-3 but also the effect of CLP activation by caspase-3 were examined (FIG. 23).

CLP mice [1] = assay: Histological analysis (hematoxylin and eosin) of major internal organs of CLP mice; type: in vivo, mouse; conditions: FIG. 7
Method: A mouse was subjected to CLP surgery, and after 2 hours, PBS or Ac-PGP was injected at a dose of 17.5 mg/kg to the mouse. After the CLP surgery, the mouse was sacrificed within 24 hours, and the lung of the mouse was fixed, microtomed, and stained with hematoxylin and eosin so as to perform morphological analysis.
The defunctionalization of the major internal organs such as lungs was associated with the mortality after sepsis. A morphological change was observed by performing hematoxylin and eosin staining. […] Liver tissues from the CLP mice were necrotized to a higher extent, but the necrosis of the liver tissues was decreased by administration of Ac-PGP. […] Most of the apoptosis in the thymus or spleen of a CLP mouse was caused in the cortex of the thymus or spleen in which immature cells were populated. When compared with those of the sham or Ac-PGP mice, an important morphological change in apoptotic cells of the CLP mice is that small compact pyknosis containing multiple nuclear fragments were present in apoptotic lymphocytes (FIG. 7). […] The apoptosis of immune cells was also accompanied with sepsis.

CLP mice [2] = assay: Cytokines in peritoneal fluid after CLP (ELISA); type: in vivo, mouse
Method: To measure a production amount of cytokines induced by CLP in a peritoneal lavage fluid, mice were provided with Ac-PGP for 2 hours, 14 hours, 26 hours, and 38 hours after CLP. A peritoneal lavage fluid was collected within various time zones between 4 and 72 hours after the CLP, and cytokines present in the peritoneal fluid was measured using ELISA (BD Biosciences Pharmingen).
An effect of the Ac-PGP on a pro-inflammatory cytokine in a peritoneal fluid by CLP was determined from 4 to 72 hours after the CLP. The CLP induced a remarkable increase in levels of pro-inflammatory cytokines (TNF-α, IL-1β and IL-6) within 24 hours (FIGS. 14 to 16). Injection of the Ac-PGP in a sepsis model by the CLP induced a remarkable change in levels of the cytokines. […] To evaluate an effect of the Ac-PGP on production of the pro-inflammatory cytokines by the LPS, in vitro production of TNF-α and IL-6 by the mouse splenocytes was evaluated. Direct release of the TNF-α and IL-6 from the mouse splenocytes by the LPS was suppressed by in vitro treatment with the Ac-PGP (FIGS. 17 and 18).
An effect of the Ac-PGP on levels of Th1 cytokines by CLP in a peritoneal fluid was also determined from 4 to 72 hours after the CLP.

In the case of acetylated-Pro-Gly-Pro [Ac-PGP], the disinfection activity (mouse neutrophils) is reported as “highly increased the disinfection activity in a dose-dependent manner”, the “activation of caspase-3” value (caspase-3) is reported as “remarkably suppressed” and the “necrosis of the liver tissues” value (CLP mice [1]; 17.5 mg/kg 2 hours after CLP) is reported as “decreased”. The “formation of alveolar congestion and thrombotic lesions in the lungs” value (CLP mice [1]) was “remarkably suppressed”, the “level of TNF-α in peritoneal fluid” value (CLP mice [2]; 4 to 72 hours after CLP, FIG. 14) was “induced a decrease in levels” and the “level of IL-1β in peritoneal fluid” value (CLP mice [2]; 4 to 72 hours after CLP, FIG. 15) was “induced a decrease in levels”. For the same substance, the “level of IL-6 in peritoneal fluid” value (CLP mice [2]; 4 to 72 hours after CLP, FIG. 16) was “induced a decrease in levels”, the “level of IFN-γ in peritoneal fluid” value (CLP mice [2]; 4 to 72 hours after CLP, FIG. 19) was “remarkably increased” and the “level of IL-12p70 in peritoneal fluid” value (CLP mice [2]; 4 to 72 hours after CLP, FIG. 20) was “remarkably increased”. For the same substance, the “level of IL-2 in peritoneal fluid” value (CLP mice [2]; 4 to 72 hours after CLP, FIG. 21) was “remarkably increased”, the “level of IFN-γ in the peritoneal fluid” value (CLP mice [2]; 24 hours after the CLP) was “improved levels” and the “level of IL-12 in the peritoneal fluid” value (CLP mice [2]; 24 hours after the CLP) was “improved levels”.
